# In EP0103381B1, “Substituted anthra(1,9-cd)pyrazol-6(2H)-ones” (WARNER-LAMBERT COMPANY, priority 1982, dated 1984):
# Where two headings read alike, the source gives them in different places.
# Experiments:
# [1] = system: lymphocytic leukemia P388; assay: in vivo lymphocytic leukemia P388 test; set-up: species or system mice; settings: Mus musculus, P388, ip, 720 h, two single doses four days apart, read-out: T/C × 100 (Percent); for response vs control in vivo at 12.5 mg/kg: P388, Dose 12.5 mg/kg intraperitoneally; for response vs control in vivo at 25 mg/kg: P388, Dose 25 mg/kg intraperitoneally; for response vs control in vivo at 1.56 mg/kg: P388, Dose 1.56 mg/kg intraperitoneally; for response vs control in vivo at 3.12 mg/kg: P388, Dose 3.12 mg/kg intraperitoneally; for response vs control in vivo at 50 mg/kg: P388, Dose 50 mg/kg intraperitoneally; for response vs control in vivo at 100 mg/kg: P388, Dose 100 mg/kg intraperitoneally; for response vs control in vivo at 6.25 mg/kg: P388, Dose 6.25 mg/kg intraperitoneally
# Protocol: The in vivo lymphocytic leukemia P388 test is carried out by the United States National Cancer Institute. The animals used are either male or female CD2F, mice. There are six to seven animals per test group. The tumor transplant is by intraperitoneal injection of dilute ascitic fluid containing cells of lymphocytic leukemia P388. The test compounds are administered intraperitoneally in two single doses with a four-day interval between doses at various dose levels following tumor inoculation. The animals are weighed and survivors are recorded on a regular basis for 30 days. A ratio of survival time for treated (T)/ control (C) animals is calculated. The criterion for efficacy is T/C x 100 > 125%. The positive control compound in this test is 1,4-dihydroxy-5,8-[bis[[2-[(2-hydroxyethyl)amino]-ethyl]amino]-9,10-anthracene- dione given at dosages ranging from 12.0 to 0.075 mg/kg. See Cancer Chemotherapy Reports, Part 3, 3, 1 (1972) for a comprehensive discussion of the protocol.
# [2] = system: Bacillus subtilis; assay: agar plate paper-disc inhibition zone screening; assay type: cell-based; settings: read-out: Inhibition Zone Diameter mm (Dose mg/ml) B. Subtilis
# Protocol: (§1) The bacterial and yeast isolates are maintained in agar slants or in liquid media, hereby designated as inoculum media. The cultures are transferred at regular intervals in such media. (See Table for the corresponding inoculum media of each culture.) The organisms are generally transferred on to agar slants or liquid inoculum media and incubated overnight (18-20 hours): 37°C for the bacterial isolates and 28°C for the fungal cultures.
# (§2) The microbial cells from the overnight agar slants are then scraped off and suspended in saline solution (0.85% NaCI). The microbial concentrations are adjusted to a light transmittancy of 20-35%, Junior Coleman Spectrophotometer (555 M). For the organisms that are maintained in liquid media, an aliquot of the culture suspension is simply diluted with saline to 20-35% light transmittancy.
# (§3) The above microbial suspension serve as inocula for the assay plates. Thus, 0.16-10 ml (see Table for exact amount) are used to inoculate 100 ml of the molten-agar assay medium.
# (§4) Stainless steel frames, 12.3 x 25.3 cm (ID) and glass plates, 15.3 x 31.7 cm are used to make the test trays. The frames are attached to the plates with tape at each end and the inner edges sealed with 2% agar. Twenty five ml of inoculated assay medium is spread evenly on each tray and allowed to solidify. The trays are covered, inverted, and refrigerated until used.
# (§5) The compounds or samples to be tested are dissolved in suitable solvents, e.g., alcohols, dimethylsulfoxide, or N,N-dimethylformamide. The samples are generally dissolved so that the final concentration of the solvent is <10%.^* The compounds are tested at different concentrations: 3,000; 1,000; 500; 100; and 10 mcg/ml. Paper discs (12.7 mm diameter) are placed on the agar trays with forceps, then 0.08 ml of the dissolved compound is pipetted onto each disc using a 0.2 ml pipette.
# (§6) The disked agar trays are incubated overnight (18-20 hours) at 37°C for the bacterial cultures and 28°C for the yeasts. The Penicillium avellaneium tray is incubated for at least […] since it is a slower- growing organism.
# (§7) Active compounds show a zone of inhibition around the disc. The diameter of the zone is measured in mm. The zone diameter of active compounds ranges from a minimum of 13.5 mm to as high as 60 mm. The size of the zone diameter generally reflects the activity of the compound: the larger the zone the greater the activity.
# [3] = system: Streptococcus faecalis; assay: agar plate paper-disc inhibition zone screening; assay type: cell-based; settings: Enterococcus faecalis, read-out: Inhibition Zone Diameter mm (Dose mg/ml) S. Faecalis
# Protocol: as §1, §2, §3, §4, §5, §6, §7
# [4] = system: Penicillium avellaneum; assay: agar plate paper-disc inhibition zone screening; assay type: cell-based; settings: Hamigera avellanea, read-out: Inhibition Zone Diameter mm (Dose mg/ml) P. Avellaneum
# Protocol: The Penicillium avellaneum is grown for six days, at 28°C, on an agar medium. This is to allow sporulation of the culture. The organism is then harvested by scraping off the cells from the agar surface (mycelia and spores) and suspending them in saline solution containing 0.05% Tween 80.
# The suspension is adjusted to a light transmittancy of 20%. One ml of this suspension is used to inoculate 100 ml of the molten-agar assay medium.
# as §4, §5, §6, §7
smiles,measurement,setting,value
"NCCNCCNc1ccc2c3c(nn2CCNCCO)-c2c(O)ccc(O)c2C(=O)c13 [Example 66, 5-[[2-[(2-Aminoethyl)amino]ethyl]amino]-7,10-dihydroxy-2-[2-[(2-hydroxyethyl)amino]ethyl]anthra[1,9-cd]pyrazol-6(2H)-one]",response vs control in vivo at 12.5 mg/kg,[1],233%
same,response vs control in vivo at 25 mg/kg,[1],221%
"O=C1c2c(O)cc(O)c(O)c2-c2nn(CCNCCO)c3ccc(NCCNCCO)c1c23 [Example 86, 7,9,10-Trihydroxy-2-[2-[(2-hydroxyethyl)amino]ethyl]-5-[[2-[(2-hydroxyethyl)amino]lethyl]amino]-anthra[1,9-cd]pyrazol-6(2H)-one]",response vs control in vivo at 1.56 mg/kg,[1],155%
same,response vs control in vivo at 3.12 mg/kg,[1],165%
"CNCCNc1ccc2c3c(nn2CCNCCO)-c2cccc(O)c2C(=O)c13 [Example 84, 7-Hydroxy-2-[2-[(2-hydroxyethyl)amino]ethyl]-5-[[2-(methylamino)ethyl]amino]anthra[1,9-cd]pyrazol-6(2H)-one]",zone of inhibition at 3000 µg/mL,[2]; Dose 3.0 mg/ml,15 mm
same,zone of inhibition at 3000 µg/mL,[3]; Dose 3.0 mg/ml,14 mm
same,zone of inhibition at 3000 µg/mL,[4]; Dose 3.0 mg/ml,0 mm
"O=C1c2c(O)c(O)cc(O)c2-c2nn(CCNCCO)c3ccc(NCCNCCO)c1c23 [Example 87, 7,8,10-Trihydroxy-2-[2-[(2-hydroxyethyl)amino]ethyl]-5-[[2-[(2-hydroxyethyl)amino]ethyl]amino]-anthra[1,9-cd]pyrazol-6(2H)-one]",response vs control in vivo at 12.5 mg/kg,[1],257%
same,response vs control in vivo at 25 mg/kg,[1],265%
O=C1c2c(O)ccc(O)c2-c2nn(CCNCCO)c3ccc(NCCCN(CCO)CCO)c1c23 [Example 68],response vs control in vivo at 25 mg/kg,[1],163%
same,response vs control in vivo at 50 mg/kg,[1],167%
same,response vs control in vivo at 100 mg/kg,[1],192%
NCCCNc1ccc2c3c(nn2CCCNCCO)-c2c(O)ccc(O)c2C(=O)c13 [Example 53],response vs control in vivo at 50 mg/kg,[1],160%
CSCCn1nc2c3c(c(NCCNCCO)ccc31)C(=O)c1c(O)ccc(O)c1-2 [Example 48],response vs control in vivo at 6.25 mg/kg,[1],140%
same,response vs control in vivo at 12.5 mg/kg,[1],132%
"O=C1c2c(O)ccc(O)c2-c2nn(CC(O)CO)c3ccc(NCCNCCO)c1c23 (centres unmarked) [Example 78, 2-(2,3-Dihydroxypropyl)-7,10-dihydroxy-5-[[2-[(2-hydroxyethyl)amino]ethyl]amino]anthra[1,9-cd]pyrazol-6(2H)-one]",response vs control in vivo at 25 mg/kg,[1],184%
same,response vs control in vivo at 50 mg/kg,[1],177%
same,response vs control in vivo at 100 mg/kg,[1],208%
same,response vs control in vivo at 200 mg/kg,"[1]; P388, Dose 200 mg/kg intraperitoneally",218%
"O=C1c2c(O)ccc(O)c2-c2nn(CCCNCCO)c3ccc(NCCNCCO)c1c23 [Example 52, 7,10-Dihydroxy-5-[[2-[(2-hydroxyethyl)amino]ethyl]amino]-2-[3-((2-hydroxyethyi)amino]propyl]anthra[1,9-cd]pyrazol-6(2H)-one]",response vs control in vivo at 12.5 mg/kg,[1],157%
same,response vs control in vivo at 25 mg/kg,[1],183%
same,response vs control in vivo at 100 mg/kg,[1],259%
CN(C)CCNCCNc1ccc2c3c(nn2CCCN)-c2c(O)ccc(O)c2C(=O)c13 [Example 91],zone of inhibition at 3000 µg/mL,[2]; Dose 3.0 mg/ml,15 mm
same,zone of inhibition at 3000 µg/mL,[3]; Dose 3.0 mg/ml,0 mm
same,zone of inhibition at 3000 µg/mL,[4]; Dose 3.0 mg/ml,0 mm
"CNCCNc1ccc2c3c(nn2CCNCCO)-c2c(O)ccc(O)c2C(=O)c13 [Example 70, 7,10-Dihydroxy-2-[2-[(2-hydraxyethyl)amino]ethyl]-5-[[2-(methylamino)ethyl]amino]anthra[1,9-cd]pyrazol-6(2H)-one]",response vs control in vivo at 6.25 mg/kg,[1],277%
same,response vs control in vivo at 12.5 mg/kg,[1],277%
"CN(CCO)CCn1nc2c3c(c(NCCNCCO)ccc31)C(=O)c1c(O)ccc(O)c1-2 [Example 51, 7,10-Dihydroxy-5-[[2-[(2-hydroxyethyl)amino]ethyl]amino]-2-[2-[(2-hydroxyethyl)-methylamino]ethyl]anthra[1,9-cd]pyrazol-6(2H)-one]",response vs control in vivo at 3.12 mg/kg,[1],184%
same,response vs control in vivo at 6.25 mg/kg,[1],182%
same,response vs control in vivo at 12.5 mg/kg,[1],203%
"O=C1c2cccc(O)c2-c2nn(CCNCCO)c3ccc(NCCNCCO)c1c23 [Example 85, 10-Hydroxy-2-(2-[(2-hydroxyethyl)amino]ethyl]-5-[[2-[(2-hydroxyethyl)amino]ethyl]amino]anthra[1,9-cd] pyrazol-6(2H)-one]",response vs control in vivo at 25 mg/kg,[1],163%
same,response vs control in vivo at 50 mg/kg,[1],172%
same,zone of inhibition at 3000 µg/mL,[2]; Dose 3.0 mg/ml,14 mm
same,zone of inhibition at 3000 µg/mL,[3]; Dose 3.0 mg/ml,0 mm
same,zone of inhibition at 3000 µg/mL,[4]; Dose 3.0 mg/ml,0 mm
"O=C1c2c(O)ccc(O)c2-c2nn(CCNCCO)c3ccc(NCCN(CCO)CCO)c1c23 [Example 67, 5-[[2-[Bis(2-hydroxyethyl)amino]ethyl]amino]-7,10-dihydroxy-2-[2-[(2-hydroxyethyl)-amino]ethyl]anthra(1,9-cd]pyrazol-6(2H)-one]",response vs control in vivo at 12.5 mg/kg,[1],158%
same,response vs control in vivo at 25 mg/kg,[1],187%
"CN(C)CCNCCn1nc2c3c(c(NCCNCCO)ccc31)C(=O)c1c(O)ccc(O)c1-2 [Example 50, 2-[2-[[2-(Dimethylamino)ethyl]amino]ethyl]-5-[[2-[(2-hydroxyethyl)amino]ethyl]amino]-7,10-dihydroxyanthra[1,9-cd]pyrazol-6(2H)-one]",response vs control in vivo at 3.12 mg/kg,[1],207%
same,response vs control in vivo at 6.25 mg/kg,[1],188%
same,response vs control in vivo at 50 mg/kg,[1],226%
"NCCn1nc2c3c(c(NCCCNCCO)ccc31)C(=O)c1c(O)ccc(O)c1-2 [Example 75, 2-(2-Aminoethyl)-5-[[3-[(2-hydroxyethyl)amino]propyl]amino]-7,10-dihydroxyanthra[1,9-cd]pyrazol-6(2H)-one]",response vs control in vivo at 1.56 mg/kg,[1],181%
same,response vs control in vivo at 3.12 mg/kg,[1],177%
same,response vs control in vivo at 6.25 mg/kg,[1],184%
same,zone of inhibition at 500 µg/mL,[2]; Dose 0.5 mg/ml,14 mm
same,zone of inhibition at 3000 µg/mL,[3]; Dose 3.0 mg/ml,0 mm
same,zone of inhibition at 3000 µg/mL,[4]; Dose 3.0 mg/ml,0 mm
"NCCCNCCCCNCCCNc1ccc2c3c(nn2CCNCCO)-c2c(O)ccc(O)c2C(=O)c13 [Example 69, 5-[(3-[[4-[(3-Aminopropyl)amino]butyl]amino]propyl]amino]-7,10-dihydroxy-2-[2-[(2-hydroxyethyl)-amino]ethyl]anthra(1,9-cd]pyrazol-6(2H)-one]",response vs control in vivo at 6.25 mg/kg,[1],127%
O=C1c2c(O)cccc2-c2nn(CCNCCO)c3ccc(NCCNCCO)c1c23 [Example 83],zone of inhibition at 3000 µg/mL,[2],14 mm
same,zone of inhibition at 3000 µg/mL,[3],0 mm
same,zone of inhibition at 3000 µg/mL,[4],0 mm
